# Measurements as given in BindingDB's records for doi:10.1111/j.1747-0285.2009.00852.x (University of Jordan, 2009).
# Target: Reverse transcriptase (Human immunodeficiency virus 2, UniProt Q06347)
# Experiment: In Vitro Enzyme Assay
# Details: pH 7.8; 37 °C
# Protocol: The reverse transcriptase inhibitory activity of compound was evaluated by a non-radioactive colorimetric assay method. This procedure uses RT to synthesize DNA starting from the template/primer hybridpoly (A) x oligo (dT)15 and avoids the use of radio-labeled nucleotides.
# Sequence of Reverse transcriptase (Q06347 whole entry): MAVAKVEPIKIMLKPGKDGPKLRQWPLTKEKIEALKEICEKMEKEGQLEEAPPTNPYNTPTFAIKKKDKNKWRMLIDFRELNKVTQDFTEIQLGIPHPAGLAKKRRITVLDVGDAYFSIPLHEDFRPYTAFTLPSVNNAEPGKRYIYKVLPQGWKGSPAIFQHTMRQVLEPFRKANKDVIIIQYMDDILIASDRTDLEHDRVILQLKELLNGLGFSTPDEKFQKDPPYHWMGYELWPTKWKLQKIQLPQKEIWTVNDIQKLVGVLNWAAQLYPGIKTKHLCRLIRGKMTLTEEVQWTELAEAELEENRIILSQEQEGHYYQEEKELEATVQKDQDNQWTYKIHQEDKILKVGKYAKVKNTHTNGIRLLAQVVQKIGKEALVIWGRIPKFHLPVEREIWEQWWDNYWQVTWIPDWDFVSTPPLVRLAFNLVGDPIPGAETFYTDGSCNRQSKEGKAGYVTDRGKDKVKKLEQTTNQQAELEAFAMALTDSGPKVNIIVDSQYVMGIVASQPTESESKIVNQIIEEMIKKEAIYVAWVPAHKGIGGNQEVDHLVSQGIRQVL
row,Compound,IC50 [µM]
1,"Cc1ccc(S(=O)(=O)Oc2ccc(Cl)cc2Cl)cc1 [NCI Code, 4179]",87.1
2,"CCCCN(CCCC)C(=O)c1ccc(Cl)cc1Cl [NCI Code, 6050]",31.3
3,Cc1ccnc2c1NC(=O)c1cccnc1N2C1CC1 [BI-RG-587],4.2
4,"CCCCCCc1nc2c([nH]1)c(=O)n(C)c(=O)n2C [NCI Code, 14129]",18.9
5,"CCCC(=O)Oc1ccc(C(C)(C)C)cc1Br [NCI Code, 6927]",335
